{
  "source": "patent US10226474B2",
  "about": "“Methods and compositions for treatment of non-alcoholic steatohepatitis” (Temple University—Of The Commonwealth System of Higher …, priority 2017, dated 2019)",
  "key": {"[1]": {"test_system": "NASH patients", "settings": "obeticholic acid treatment; cited from earlier work"}, "[2]": {"test_system": "mouse diabetic model", "settings": "U.S. Pat. No. 8,431,555; cited from earlier work"}, "[3]": {"test_system": "TPA-stimulated epidermal hyperplasia in mouse skin", "settings": "cited from earlier work"}, "[4]": {"test_system": "DIAMOND™ mouse model of NASH", "assay": "Efficacy of fluasterone in the DIAMOND mouse model of NASH (Western Diet Sugar Water)", "type": "in vivo", "settings": "for mice progressed to measurable fibrosis by NASH CRN score: 24 week WDSW group 5/10", "procedure": "DIAMOND™ (Diet Induced Animal Model of Non-alcoholic fatty liver Disease) mouse model is a mouse model of NASH. This mouse model was used to assess the effect of fluasterone. The drug formulation (subcutaneous injectable formulation) contained fluasterone as an active pharmaceutical ingredient in a vehicle. The vehicle contained RO (reverse osmosis) water mixed with sterile saline solution and 5% Tween-80. The drug formulation was prepared as follows: micronized powder of fluasterone (submicron range particles of fluasterone) was suspended in the vehicle and vortexed to evenly suspend. Two doses of fluasterone were used and compared to vehicle controls and positive and negative natural history controls to determine the impact on weight gain, fatty liver, steatohepatitis, and the progression to fibrosis. The two different doses of fluasterone used were (i) a low dose (LD) fluasterone (5 mg fluasterone/kg body weight) for 8 weeks and (ii) a high dose (HD) fluasterone (20 mg fluasterone/kg body weight) for 8 weeks. Vehicle Control was sterile saline with 5% Tween-80. The other details are as follows: (1) Animal Species: DIAMOND™ Mice (Male C57BL/6J(B6)-129s1/SvImJ(S129)). (2) Positive Control and Treatment Groups' food and drinking water: (a) Food—Western Diet ENVIGO Harlan/Teklad 42% Adjusted Calories from Fat (TD. 88137), and (b) RO Water—Sugar Water—D-fructose Alfa Aesar #A17718 and D-glucose Water—Fisher Scientific #D19-212; Recipe=231 g Fructose+189 g Glucose+750 ml RO (reverse osmosis) water Diluted into 9 L RO Water. This diet is referred to herein as Western Diet Sugar Water (WDSW). (3) Negative Control Group's food and drinking water: (a) Normal Mouse Chow Diet—ENVIGO Harlan/Teklad Normal Rodent Chow (TD 7012 Teklad LM-485), and (b) RO water. This diet is referred to herein interchangeably as Normal Diet Normal Water (NDNW) and Normal Chow Normal Water (NCNW).\nEight-two (82) DIAMOND™ mice were put on the special diet WDSW (high fat diet (Harlan/Teklad 42% fat) and sweetened water (D-Fructose and D-Glucose)) at time point 0 (t=0) (at eight weeks of age). Mice were weighed weekly. Of these, 10 mice were injected subcutaneously with fluasterone at concentration 5 mg/kg and 10 mice were injected subcutaneously with fluasterone at concentration 20 mg/kg, and 5 mice in a staggered group were injected with vehicle starting at 16 weeks on diet (t=16) until 24 weeks (t=24), as described in “Subcutaneous Injection.” For baseline controls, 8 male DIAMOND™ mice were placed on the WDSW at eight weeks of age and given no treatment; these were the positive natural history controls. A second group of 8 male DIAMOND™ mice were continued on the NCNW/NDNW at eight (8) weeks and these were the negative natural history control group. The mice were weighed weekly. At 16, 20, and 24 weeks on diet, fasting insulin was measured in serum from tail vein nick. HOMA-IR scores were calculated. 8 mice on WDSW and 8 mice NDNW were sacrificed at 16 weeks (t=16) on diet as baseline positive and negative controls. 8 mice on WDSW and 8 mice NDNW were sacrificed at 24 weeks (t=24). Carbon dioxide was used as an anesthetic and a cardiac puncture was performed for exsanguination. Cervical dislocation was performed as a secondary means of euthanasia.\nAs discussed above, the drug formulation used in this experiment contained fluasterone as an active pharmaceutical ingredient in a vehicle. The vehicle contained RO water mixed with sterile saline solution and 5% Tween-80.\nBody Weights: Mice were weighed weekly and the weights determined the amount of test compound administered.\nSubcutaneous Injection: The mice received a subcutaneous injection 1× daily. In summary, mice were grasped at the scruff of the neck and a suitable place was selected for the injection. The injection site was moved daily to ensure limited distress to the animal. […]"}, "[5]": {"test_system": "Nonalcoholic Steatohepatitis patients", "settings": "PIVENS histologic response criteria; 0.025 considered statistically significant; cited from earlier work"}, "[6]": {"test_system": "NASH patients", "settings": "oral dose of 150 mg, one year, cited from earlier work"}},
  "note": "Like-named read-outs stand apart in the source and are kept apart here.",
  "data": [
    {"compound": "CC[C@H]1[C@@H](O)[C@@H]2[C@H](CC[C@]3(C)[C@@H]([C@H](C)CCC(=O)O)CC[C@@H]23)[C@@]2(C)CC[C@@H](O)C[C@@H]12", "note": "[obeticholic acid]", "values": [
      {"measurement": "insulin sensitivity", "setting": "[1]", "value": "decrease in insulin sensitivity"},
      {"measurement": "plasma LDL and total cholesterol", "setting": "[1]", "value": "significant increase"}
    ]},
    {"compound": "C[C@]12CCCCC1=CC[C@@H]1[C@@H]2CC[C@]2(C)C(=O)[C@H](F)C[C@@H]12", "note": "[fluasterone, 16α-fluoro-5-androsten-17-one]", "values": [
      {"measurement": "hyperglycemia", "setting": "[2]", "value": "effective in reducing hyperglycemia"},
      {"measurement": "effective dose abolishing TPA-stimulated epidermal hyperplasia", "setting": "[3]; oral", "value": "at least 200 mg/kg"},
      {"measurement": "lowest effective dose abolishing TPA-stimulated epidermal hyperplasia", "setting": "[3]; subcutaneous injection", "value": 2.5, "unit": "mg/kg"},
      {"measurement": "fasting blood ketones at necropsy", "setting": "[4]; both low dose 5 mg/kg (P 0.01) and high dose 20 mg/kg (P 0.0005) vs 24 weeks WDSW", "value": "significantly lower"},
      {"measurement": "fasting blood glucose", "setting": "[4]; both low dose 5 mg/kg and high dose 20 mg/kg s.c., 8 weeks, vs 24 weeks WDSW, P 0.003 each (FIG. 3)", "value": "significantly improved"},
      {"measurement": "SAF Activity score", "setting": "[4]; both treatment groups vs 24 week positive controls, high dose P<0.039, low dose P<0.008 (FIG. 17)", "value": "improved the SAF scores"},
      {"measurement": "NAS score", "setting": "[4]; both treatment groups vs 24 week positive controls, high dose P<0.05, low dose P<0.001 (FIG. 18)", "value": "improved the NAS score"},
      {"measurement": "lobular inflammation", "setting": "[4]; both treatment groups vs 24 weeks WDSW, high dose P<0.01, low dose P<0.032 (FIG. 14)", "value": "significantly reduced inflammation"},
      {"measurement": "serum triglycerides", "setting": "[4]; fluasterone-treated mice vs WDSW", "value": "no significant difference"},
      {"measurement": "total serum cholesterol", "setting": "[4]; fluasterone-treated mice vs WDSW positive controls, low dose P=0.0504", "value": "lower total serum cholesterol"},
      {"measurement": "liver weight vs WDSW positive control", "setting": "[4]; high dose 20 mg/kg s.c. 1x daily for 8 weeks (weeks 16-24 on WDSW), P=0.054", "value": "smaller livers compared to the WDSW 24 wk control group"},
      {"measurement": "fibrosis (NASH CRN)", "setting": "[4]; high dose 20 mg/kg vs 24 week positive controls, P=0.15", "value": "not statistically less fibrotic although there was a trend"},
      {"measurement": "alkaline phosphatase (ALP)", "setting": "[4]; high dose 20 mg/kg vs WDSW control, P=0.058", "value": "strong trend to improvement"},
      {"measurement": "mice that progressed to NASH", "setting": "[4]; high dose 20 mg/kg, 24 week WDSW control 10/10, baseline (16 weeks) 5/10", "value": "5/10"},
      {"measurement": "mice progressed to measurable fibrosis by NASH CRN score", "setting": "[4]; high dose 20 mg/kg", "value": "2/10"},
      {"measurement": "perisinusoidal fibrosis", "setting": "[4]; high dose 20 mg/kg, P value of 0.052", "value": "almost statistically significant"},
      {"measurement": "fasting insulin (ELISA)", "setting": "[4]; low and high dose groups vs WDSW positive control, baseline (16 weeks) and end of study (24 weeks)", "value": "not statistically significant between drug treated groups and WDSW positive control"},
      {"measurement": "HOMA IR", "setting": "[4]; low and high dose groups vs positive WDSW control, data not shown", "value": "comparable between the positive WDSW control and the drug treated groups"},
      {"measurement": "steatosis grade", "setting": "[4]; low and high dose groups vs positive controls", "value": "neither treatment group had improved steatosis grade"},
      {"measurement": "necropsy body weight", "setting": "[4]; low dose 5 mg/kg and high dose 20 mg/kg s.c., 8 weeks, vs 24 week WDSW", "value": "comparable to the 24 week positive WDSW controls"},
      {"measurement": "liver weight vs WDSW positive control", "setting": "[4]; low dose 5 mg/kg s.c. 1x daily for 8 weeks (weeks 16-24 on WDSW), P=0.12", "value": "smaller livers than the WDSW positive control group, however the difference was not statistically significant"},
      {"measurement": "AST", "setting": "[4]; low dose 5 mg/kg vs 24 week WDSW, P=0.10", "value": "statistically significant drop in AST"},
      {"measurement": "hepatocyte ballooning", "setting": "[4]; low dose 5 mg/kg vs 24 week positive control, P=0.026", "value": "statistically less ballooning"},
      {"measurement": "fibrosis (NASH CRN)", "setting": "[4]; low dose 5 mg/kg vs 24 week positive controls, P=0.057", "value": "lower than the 24 week positive controls"},
      {"measurement": "alkaline phosphatase (ALP)", "setting": "[4]; low dose 5 mg/kg vs WDSW control, P=0.01", "value": "significantly lower"},
      {"measurement": "steatosis percentage", "setting": "[4]; low dose 5 mg/kg vs positive controls, P=0.032", "value": "statistically significantly less steatosis percentage"},
      {"measurement": "mice that developed NASH", "setting": "[4]; low dose 5 mg/kg, 24 week WDSW control 10/10, baseline (16 weeks) 5/10", "value": "7/10"},
      {"measurement": "mice progressed to measurable fibrosis by NASH CRN score", "setting": "[4]; low dose 5 mg/kg", "value": "1/10"},
      {"measurement": "perisinusoidal fibrosis", "setting": "[4]; low dose 5 mg/kg, P=0.002", "value": "significantly less perisinusoidal fibrosis"},
      {"measurement": "ALT", "setting": "[4]; treated mice vs 24 week positive control, P 0.11 (low dose) and 0.051 (high dose)", "value": "strong trend towards improved ALT (lower ALT)"}
    ]},
    {"compound": "Vitamin E", "values": [
      {"measurement": "histologic improvement compared with placebo", "setting": "[5]", "value": "significant histologic improvement compared with placebo"}
    ]},
    {"compound": "CSc1ccc(C(=O)/C=C/c2cc(C)c(OC(C)(C)C(=O)O)c(C)c2)cc1", "note": "[GFT 505]", "values": [
      {"measurement": "improvement in histologically-assessed NASH vs. placebo", "setting": "[6]; all patients", "value": "failed to produce a statistically significant improvement"},
      {"measurement": "improvement in histologically-assessed NASH vs. placebo", "setting": "[6]; patients with the mildest form of NASH (NAS<3) excluded", "value": "statistically significant improvement vs. placebo"}
    ]}
  ]
}
